Key:
JaTyrA1 [1] = assay: NADPH formation at […] nm, Michaelis-Menten fit; format: biochemical, Joinvillea ascendens; details: 1 mM NADP+, 50 mM HEPES pH 7.5, 50 mM KCl, 37 °C
AcTyrAnc [2] = assay: NADPH formation at […] nm, Michaelis-Menten fit; format: biochemical, Ananas comosus; details: 1 mM NADP+, 50 mM HEPES pH 7.5, 50 mM KCl, 37 °C
SaTyrA1 [3] = assay: NADPH formation at […] nm, Michaelis-Menten fit; format: biochemical, Streptochaeta angustifolia; details: 1 mM NADP+, 50 mM HEPES pH 7.5, 50 mM KCl, 37 °C
AcTyrA1 [4] = assay: NADPH formation at […] nm, Michaelis-Menten fit; format: biochemical, Ananas comosus; details: 1 mM NADP+, 50 mM HEPES pH 7.5, 50 mM KCl, 37 °C
JaTyrAnc [5] = assay: NADPH formation at […] nm, Michaelis-Menten fit; format: biochemical, Joinvillea ascendens; details: 1 mM NADP+, 50 mM HEPES pH 7.5, 50 mM KCl, 37 °C
SaTyrAnc [6] = assay: NADPH formation at […] nm, Michaelis-Menten fit; format: biochemical, Streptochaeta angustifolia; details: 1 mM NADP+, 50 mM HEPES pH 7.5, 50 mM KCl, 37 °C
AcTyrA1 [7] = details: competitive model; 500 µM arogenate, 1 mM NADP+, pH 7.5, 37 °C
OsTyrA1 [8] = biological target: T1, OsTyrA1 (Oryza sativa, UniProt Q5Z9H5); details: competitive model; 500 µM arogenate, 1 mM NADP+, pH 7.5, 37 °C
T1 sequence (Q5Z9H5 46-353): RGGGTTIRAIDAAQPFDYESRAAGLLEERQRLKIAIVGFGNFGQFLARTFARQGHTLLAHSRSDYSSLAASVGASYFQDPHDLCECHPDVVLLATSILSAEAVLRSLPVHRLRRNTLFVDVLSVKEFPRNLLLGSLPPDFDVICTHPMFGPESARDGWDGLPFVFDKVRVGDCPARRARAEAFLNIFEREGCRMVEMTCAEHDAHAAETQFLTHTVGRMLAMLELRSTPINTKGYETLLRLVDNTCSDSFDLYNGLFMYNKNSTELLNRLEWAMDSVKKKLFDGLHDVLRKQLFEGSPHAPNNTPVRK

AcTyrAnc [9] = details: competitive model; 500 µM arogenate, 1 mM NADP+, pH 7.5, 37 °C
OsTyrA1 [10] = biological target: T1, OsTyrA1; details: read-out: IC50 (µM Tyr); 500 uM arogenate, 1 mM NADP+; inhibitor
OsTyrAnc [11] = biological target: T2, OsTyrAnc (Oryza sativa, UniProt Q5Z6Y1); details: competitive model; 500 µM arogenate, 1 mM NADP+, pH 7.5, 37 °C
T2 sequence (Q5Z6Y1 50-342): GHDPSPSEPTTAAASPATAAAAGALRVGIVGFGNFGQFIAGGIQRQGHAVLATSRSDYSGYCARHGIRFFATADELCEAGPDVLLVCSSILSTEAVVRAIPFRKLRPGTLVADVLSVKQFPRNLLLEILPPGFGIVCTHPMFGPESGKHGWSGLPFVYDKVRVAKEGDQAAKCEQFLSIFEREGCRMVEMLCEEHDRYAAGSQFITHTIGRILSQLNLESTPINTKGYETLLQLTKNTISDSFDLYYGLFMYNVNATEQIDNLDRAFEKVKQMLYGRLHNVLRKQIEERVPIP

ZmTyrAnc [12] = biological target: T3, ZmTyrAnc (Zea mays, UniProt C0PK73); details: read-out: IC50 (µM Tyr); 500 uM arogenate, 1 mM NADP+; inhibitor
T3 sequence (C0PK73 50-392): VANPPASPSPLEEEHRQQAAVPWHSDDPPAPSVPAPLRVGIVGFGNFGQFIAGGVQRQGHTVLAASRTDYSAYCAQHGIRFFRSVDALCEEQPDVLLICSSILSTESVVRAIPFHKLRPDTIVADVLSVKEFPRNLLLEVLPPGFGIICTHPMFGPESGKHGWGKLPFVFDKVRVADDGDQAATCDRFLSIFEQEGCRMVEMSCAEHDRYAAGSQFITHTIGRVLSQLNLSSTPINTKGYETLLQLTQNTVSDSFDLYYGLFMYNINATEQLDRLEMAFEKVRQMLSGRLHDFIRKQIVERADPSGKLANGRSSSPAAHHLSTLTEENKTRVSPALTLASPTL

SaTyrAnc [13] = details: competitive model; 500 µM arogenate, 1 mM NADP+, pH 7.5, 37 °C
ZmTyrAnc [14] = biological target: T3, ZmTyrAnc; details: competitive model; 500 µM arogenate, 1 mM NADP+, pH 7.5, 37 °C
SaTyrA1 [15] = details: competitive model; 500 µM arogenate, 1 mM NADP+, pH 7.5, 37 °C
JaTyrA1 [16] = details: competitive model; 500 µM arogenate, 1 mM NADP+, pH 7.5, 37 °C
OsTyrAnc [17] = biological target: T2, OsTyrAnc; details: read-out: IC50 (µM Tyr); 500 uM arogenate, 1 mM NADP+; inhibitor
JaTyrAnc [18] = details: competitive model; 500 µM arogenate, 1 mM NADP+, pH 7.5, 37 °C

| Km (JaTyrA1 [1]) [µM] | Km (AcTyrAnc [2]) [µM] | Km (SaTyrA1 [3]) [µM] | Km (AcTyrA1 [4]) [µM] | Km (JaTyrAnc [5]) [µM] | Km (SaTyrAnc [6]) [µM] | Structure (SMILES) | Ki (AcTyrA1 [7]) [µM] | Ki (OsTyrA1 [8]) [µM] | Ki (AcTyrAnc [9]) [µM] | IC50 (OsTyrA1 [10]) [µM] | Ki (OsTyrAnc [11]) [µM] | IC50 (ZmTyrAnc [12]) [µM] | Ki (SaTyrAnc [13]) [µM] | Ki (ZmTyrAnc [14]) [µM] | Ki (SaTyrA1 [15]) [µM] | Ki (JaTyrA1 [16]) [µM] | IC50 (OsTyrAnc [17]) [µM] | Ki (JaTyrAnc [18]) [µM] |
| --- | --- | --- | --- | --- | --- | --- | --- | --- | --- | --- | --- | --- | --- | --- | --- | --- | --- | --- |
| 730 ± 60 | 1050 ± 170 | 720 ± 90 | 750 ± 80 | 1900 ± 240 | 350 ± 20 | N[C@@H](CC1(C(=O)O)C=CC(O)C=C1)C(=O)O (stereo partly drawn) [arogenate] | – | – | – | – | – | – | – | – | – | – | – | – |
| – | – | – | – | – | – | N[C@@H](Cc1ccc(O)cc1)C(=O)O [tyrosine] | 12 ± 6 | 21 ± 2 | 76 ± 30 | 53 ± 5 | 78 ± 19 | 850 ± 30 | 35 ± 8 | 352 ± 13 | 34 ± 23 | 24 ± 4 | 280 ± 70 | 106 ± 19 |
